Tests used:
BTK enzyme = target: T1, BTK enzyme (Homo sapiens, UniProt Q06187); test: In vitro BTK kinase assay: BTK-POLYGAT-LS assay; format: biochemical; settings: ATP 10 μM, read-out: IC50 (10uMATP)
T1 construct: purchased Upstate 14-552
Summary of the method: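 Human BTK activity was measured with final 10 μM ATP and 100 nM polyGAT substrate in pH 7.5 Tris buffer with 10 mM MgCl2, DTT, Triton X-100 and casein.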

[1] = target: BTK (phospho-BTK) in human whole blood (Homo sapiens, UniProt Q06187); test: In vitro PD assay in human whole blood (pBTK assay)
BTK (phospho-BTK) in human whole blood, sequence (Q06187 whole entry): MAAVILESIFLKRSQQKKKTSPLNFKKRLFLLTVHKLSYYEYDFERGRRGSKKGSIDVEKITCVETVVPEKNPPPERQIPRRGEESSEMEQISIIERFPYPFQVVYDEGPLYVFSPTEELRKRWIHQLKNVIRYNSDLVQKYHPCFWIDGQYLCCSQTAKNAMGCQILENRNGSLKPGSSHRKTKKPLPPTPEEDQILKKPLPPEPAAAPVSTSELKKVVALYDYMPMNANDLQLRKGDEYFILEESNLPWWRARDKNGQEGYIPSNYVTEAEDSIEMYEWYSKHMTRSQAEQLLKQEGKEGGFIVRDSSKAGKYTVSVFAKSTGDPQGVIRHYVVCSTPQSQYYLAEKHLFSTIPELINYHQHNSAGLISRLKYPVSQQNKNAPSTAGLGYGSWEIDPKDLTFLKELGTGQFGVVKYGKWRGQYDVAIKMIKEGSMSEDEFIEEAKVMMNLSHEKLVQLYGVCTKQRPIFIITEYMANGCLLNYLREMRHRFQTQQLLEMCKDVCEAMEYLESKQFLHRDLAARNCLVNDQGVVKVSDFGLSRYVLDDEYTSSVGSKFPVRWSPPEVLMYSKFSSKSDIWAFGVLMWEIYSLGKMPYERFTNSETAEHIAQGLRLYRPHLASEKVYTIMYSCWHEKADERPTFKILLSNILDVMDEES

T1 sequence (Q06187 whole entry): as above

| Structure (SMILES) | IC50 (BTK enzyme) | IC50 [1] |
| --- | --- | --- |
| Cc1cc(-c2cc(Nc3cc4n(n3)CCNC4)ncn2)ccc1CNC(=O)c1cnn(C(C)(C)C)c1 [Example I-231, 1-(tert-butyl)-N-(2-methyl-4-(6-((4,5,6,7-tetrahydropyrazolo[1,5-a]pyrazin-2-yl)amino)-pyrimidin-4-yl)benzyl)-1H-pyrazole-4-carboxamide] | < 10 nM | < 500 nM |
| CCN1CCn2nc(Nc3cc(-c4ccc(CNC(=O)c5cnn(C(C)(C)C)c5)c(C)c4)ncn3)cc2C1 [Example I-232, 1-(tert-butyl)-N-(4-(6-((5-ethyl-4,5,6,7-tetrahydropyrazolo[1,5-a]pyrazin-2-yl)amino)pyrimidin-4-yl)-2-methylbenzyl)-1H-pyrazole-4-carboxamide] | < 10 nM | < 500 nM |
| Cc1cc(-c2cc(Nc3cc4n(n3)CCCNC4)ncn2)ccc1CNC(=O)c1cnn(C(C)(C)C)c1 [Example I-234, 1-(tert-butyl)-N-(2-methyl-4-(6-((5,6,7,8-tetrahydro-4H-pyrazolo[1,5-a][1,4]diazepin-2-yl)amino)pyrimidin-4-yl)benzyl)-1H-pyrazole-4-carboxamide] | < 10 nM | < 500 nM |
| Cc1cc(-c2cc(Nc3cc4n(n3)CCCN(C)C4)ncn2)ccc1CNC(=O)c1cnn(C(C)(C)C)c1 [Example I-236, 1-(tert-butyl)-N-(2-methyl-4-(6-((5-methyl-5,6,7,8-tetrahydro-4H-pyrazolo[1,5-a][1,4]diazepin-2-yl)amino)pyrimidin-4-yl)benzyl)-1H-pyrazole-4-carboxamide] | < 10 nM | < 500 nM |
| Cc1cc(-c2cc(Nc3cc4n(n3)CCOC4)ncn2)ccc1CNC(=O)c1cnn(C(C)(C)C)c1 [Example I-237, 1-(tert-butyl)-N-(4-(6-((6,7-dihydro-4H-pyrazolo[5,1-c][1,4]oxazin-2-yl)amino)pyrimidin-4-yl)-2-methylbenzyl)-1H-pyrazole-4-carboxamide] | < 10 nM | < 500 nM |
| Cc1cc(-c2cc(Nc3cc4n(n3)CC(=O)N(C)C4)ncn2)ccc1CNC(=O)N1CC(OC(C)(C)C)C1 [Example I-239, 3-(tert-butoxy)-N-(2-methyl-4-(6-((5-methyl-6-oxo-4,5,6,7-tetrahydropyrazolo-[1,5-a]pyrazin-2-yl)amino)pyrimidin-4-yl)benzyl) azetidine-1-carboxamide] | < 10 nM | < 500 nM |
| CN1CCn2nc(Nc3cc(-c4ccc(CNC(=O)c5cnn(C(C)(C)C)c5)c(C(F)(F)F)c4)ncn3)cc2C1 [Example I-241, 1-(tert-butyl)-N-(4-(6-((5-methyl-4,5,6,7-tetrahydropyrazolo[1,5-a]pyrazin-2-yl)amino)pyrimidin-4-yl)-2-(trifluoromethyl)benzyl)-1H-pyrazole-4-carboxamide] | < 10 nM | < 500 nM |
| Cc1cc(-c2cc(Nc3cc4n(n3)CCN(C)C4)ncn2)ccc1CNC(=O)N1CC[C@@H](C(C)(C)C)C1 [Example I-244, (S)-3-(tert-butyl)-N-(2-methyl-4-(6-((5-methyl-4,5,6,7-tetrahydropyrazolo[1,5-a]pyrazin-2-yl)amino)pyrimidin-4-yl)benzyl)pyrrolidine-1-carboxamide] | < 10 nM | < 500 nM |
| CCn1cc(Nc2nccc(-c3ccc(CNC(=O)c4cnn(C(C)(C)C)c4)c(C)c3)n2)cn1 [Example I-247, 1-(tert-butyl)-N-(4-(2-((1-ethyl-1H-pyrazol-4-yl)amino)pyrimidin-4-yl)-2-methylbenzyl)-1H-pyrazole-4-carboxamide] | < 10 nM | < 500 nM |
| Cn1cc(Nc2nccc(-c3ccc4c(c3)CCNCC4NC(=O)N3CC(OC(C)(C)C)C3)n2)cn1 (stereo not drawn) [Example I-248, 3-(tert-butoxy)-N-(7-(2-((1-methyl-1H-pyrazol-4-yl)amino)pyrimidin-4-yl)-2,3,4,5-tetrahydro-H-benzo[d]azepin-1-yl)azetidine-1-carboxamide] | < 10 nM | < 500 nM |
| Cc1cc(-c2ccnc(Nc3cnn(C)c3)n2)ccc1CN1CCN(CC(C)C)CC1=O [Example I-249, 4-isobutyl-1-(2-methyl-4-(2-((1-methyl-1H-pyrazol-4-yl)amino)pyrimidin-4-yl)benzyl)piperazin-2-one] | < 10 nM | < 500 nM |
| Cc1cc(-c2ccnc(Nc3cnn(CCO)c3)n2)ccc1CNC(=O)c1cnn(C(C)(C)C)c1 [Example I-250, 1-tert-butyl-N-[[4-[2-[[1-(2-hydroxyethyl)pyrazol-4-yl]amino]pyrimidin-4-yl]-2-methyl-phenyl]methyl]pyrazole-4-carboxamide] | < 10 nM | < 500 nM |
| Cc1cc(-c2cc(Nc3ccc(N4CCN(C)CC4)cn3)ncn2)ccc1CNC(=O)N1CC(OC(C)(C)C)C1 [Example I-251, 3-tert-butoxy-N-[[2-methyl-4-[6-[[5-(4-methylpiperazin-1-yl)-2-pyridyl]amino]pyrimidin-4-yl]phenyl]methyl]azetidine-1-carboxamide] | < 10 nM | < 500 nM |
| Cc1cc(-c2ccnc(Nc3cnn(C)c3)n2)ccc1CNC(=O)N1CC[C@@H](C(C)(C)C)C1 [Example I-254] | < 10 nM | < 500 nM |
| Cc1cc(-c2cc(Nc3cc4n(n3)CCN(C)C4)ncn2)ccc1CNC(=O)N1CC(OC(C)(C)C)C1 [Example I-256, 3-tert-butoxy-N-[[2-methyl-4-[6-[(5-methyl-6,7-dihydro-4H-pyrazolo[1,5-a]pyrazin-2-yl)amino]pyrimidin-4-yl]phenyl]methyl]azetidine-1-carboxamide] | < 10 nM | < 500 nM |
| Cc1cc(-c2ccnc(Nc3cnn(C(C)C)c3)n2)ccc1CNC(=O)c1cnn(C(C)(C)C)c1 [Example I-258, 1-tert-butyl-N-[[4-[2-[(1-isopropylpyrazol-4-yl)amino]pyrimidin-4-yl]-2-methyl-phenyl]methyl]pyrazole-4-carboxamide] | < 10 nM | < 500 nM |
| Cc1cc(-c2ccnc(Nc3cnn(C(C)C)c3)n2)ccc1CNC(=O)N1CC(OC(C)C)C1 [Example I-259, 3-isopropoxy-N-[[4-[2-[(1-isopropylpyrazol-4-yl)amino]pyrimidin-4-yl]-2-methyl-phenyl]methyl]azetidine-1-carboxamide] | < 10 nM | < 500 nM |

More lines, now with the values ahead:

| IC50 (BTK enzyme) | IC50 [1] | Structure (SMILES) |
| --- | --- | --- |
| < 10 nM | < 500 nM | Cc1cc(-c2cc(Nc3cc4n(n3)CCN(CCO)C4)ncn2)ccc1CNC(=O)c1cnn(C(C)(C)C)c1 [Example I-233, 1-(tert-butyl)-N-(4-(6-((5-(2-hydroxyethyl)-4,5,6,7-tetrahydropyrazolo[1,5-a]pyrazin-2-yl)amino)pyrimidin-4-yl)-2-methylbenzyl)-1H-pyrazole-4-carboxamide] |
| < 10 nM | < 500 nM | Cc1cc(-c2cc(Nc3cc4n(n3)CCCN(CCO)C4)ncn2)ccc1CNC(=O)c1cnn(C(C)(C)C)c1 [Example I-235, 1-(tert-butyl)-N-(4-(6-((5-(2-hydroxyethyl)-5,6,7,8-tetrahydro-4H-pyrazolo[1,5-a][1,4]diazepin-2-yl)amino)pyrimidin-4-yl)-2-methylbenzyl)-1H-pyrazole-4-carboxamide] |
| < 10 nM | < 500 nM | CCC1CN(C(=O)NCc2ccc(-c3ccnc(Nc4cnn(C)c4)n3)cc2C)C1 [Example I-238, 3-Ethyl-N-(2-methyl-4-(2-((1-methyl-1H-pyrazol-4-yl)amino)pyrimidin-4-yl)benzyl)azetidine-1-carboxamide] |
| < 10 nM | < 500 nM | CN1CCn2nc(Nc3cc(-c4ccc(CNC(=O)c5cnn(C(C)(C)C)c5)c(Cl)c4)ncn3)cc2C1 [Example I-240, 1-(tert-butyl)-N-(2-chloro-4-(6-((5-methyl-4,5,6,7-tetrahydropyrazolo[1,5-a]-pyrazin-2-yl)amino)pyrimidin-4-yl)benzyl)-1H-pyrazole-4-carboxamide] |
| < 10 nM | < 500 nM | Cc1cc(-c2cc(Nc3cc4n(n3)CCS(=O)(=O)C4)ncn2)ccc1CNC(=O)c1cnn(C(C)(C)C)c1 [Example I-242, 1-(tert-butyl)-N-(4-(6-((5,5-dioxido-6,7-dihydro-4H-pyrazolo[5,1-c][1,4]thiazin-2-yl)amino)pyrimidin-4-yl)-2-methylbenzyl)-1H-pyrazole-4-carboxamide] |
| < 10 nM | < 500 nM | [2H]C([2H])([2H])n1cc(Nc2cc(-c3ccc(CNC(=O)N4CC(OC(C)C)C4)c(C)c3)ncn2)cn1 [Example I-243, 3-isopropoxy-N-(2-methyl-4-(6-((1-d3-methyl-1H-pyrazol-4-yl)amino)pyrimidin-4-yl)benzyl)azetidine-1-carboxamide] |
| < 10 nM | < 500 nM | Cc1cc(-c2cc(Nc3cc4n(n3)CCN(C)C4)ncn2)ccc1CNC(=O)N1CC[C@H](C(C)(C)C)C1 [Example I-245, (R)-3-(tert-butyl)-N-(2-methyl-4-(6-((5-methyl-4,5,6,7-tetrahydropyrazolo[1,5-a]pyrazin-2-yl)amino)pyrimidin-4-yl)benzyl)pyrrolidine-1-carboxamide] |
| < 10 nM | < 500 nM | Cc1cc(-c2ccnc(Nc3cnn(C)c3)n2)ccc1CNC(=O)c1ccn(C(C)(C)C)n1 [Example I-252, 1-tert-butyl-N-[[2-methyl-4-[2-[(1-methylpyrazol-4-yl)amino]pyrimidin-4-yl]phenyl]methyl]pyrazole-3-carboxamide] |
| < 10 nM | < 500 nM | Cc1cc(-c2ccnc(Nc3cnn(C)c3)n2)ccc1CNC(=O)N1CC[C@H](C(C)(C)C)C1 [Example I-253, (3R)-3-tert-butyl-N-[[2-methyl-4-[2-[(1-methylpyrazol-4-yl)amino]pyrimidin-4-yl]phenyl]methyl]pyrrolidine-1-carboxamide] |
| < 10 nM | < 500 nM | Cc1cc(-c2ccnc(Nc3cnn(C)c3)n2)ccc1CNC(=O)N1CC[C@@H](C(C)C)C1 [Example I-255, (3S)-3-isopropyl-N-[[2-methyl-4-[2-[(1-methylpyrazol-4-yl)amino]pyrimidin-4-yl]phenyl]methyl]pyrrolidine-1-carboxamide] |
